Tests used:
[1] = tested on: MT4; assay: Antiviral activity against HIV1 3b in human MT4 cells; format: functional, cell-based
[2] = tested on: MT4; assay: Cytotoxic activity against human MT4 cells infected with HIV1 by MTT assay; format: functional
[3] = target: Human immunodeficiency virus type 1 integrase (Human immunodeficiency virus 1, UniProt Q7ZJM1); assay: Inhibition of recombinant HIV1 integrase strand transfer activity
Sequence of Human immunodeficiency virus type 1 integrase (Q7ZJM1 whole entry): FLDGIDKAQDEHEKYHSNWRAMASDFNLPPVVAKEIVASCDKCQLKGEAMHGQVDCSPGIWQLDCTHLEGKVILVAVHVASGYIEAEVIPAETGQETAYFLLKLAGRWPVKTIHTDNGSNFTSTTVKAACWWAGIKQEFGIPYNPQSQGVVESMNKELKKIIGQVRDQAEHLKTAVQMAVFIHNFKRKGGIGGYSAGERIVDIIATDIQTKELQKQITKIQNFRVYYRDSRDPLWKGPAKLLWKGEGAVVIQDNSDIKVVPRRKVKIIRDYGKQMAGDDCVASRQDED

Row | IC50 [3] [nM] | SMILES | EC50 [1] [nM] | Activity [2] [µM]
1 | – | COc1cc2c(cc1Cc1cccc(Cl)c1F)c(=O)c(C(=O)O)cn2[C@H](CO)C(C)C | 0.9 | 4
2 | 1600 | O=C(O)c1cnc2ccc(Cc3ccccc3)cc2c1O | > 30000 | >30
3 | 24.2 | O=C(O)c1cn(CCO)c2ccc(Cc3cccc(Cl)c3F)cc2c1=O | 76.3 | >15
4 | 9.1 | COc1cc2c(cc1Cc1cccc(Cl)c1F)c(=O)c(C(=O)O)cn2CCO | 17.1 | 5.3
5 | 43.5 | O=C(O)c1c[nH]c2ccc(Cc3cccc(Cl)c3F)cc2c1=O | 805 | >12
6 | 22.8 | O=C(NCc1ccc(F)cc1)c1nc(N2CCCCS2(=O)=O)c2cccnc2c1O | 3.6 | 0.7
7 | – | CC(C)[C@@H](CO)n1cc(C(=O)O)c(=O)c2cc(Cc3cccc(Cl)c3F)ccc21 | 7.5 | 14
